Measured values reported in US12018327B2, “Methods and compositions relating to epoxide hydrolase genes” (The Regents of the University of California, priority 2018, dated 2024).

Assays:
autologous T cells = test: Co-culture of 12,13 DiHOME treated DCs with autologous T cells, T cell subsets by flow cytometry; format: cell-based, human
Protocol: Co-culture of human DCs and T cells in the presence of 12,13 DiHOME was performed as previously described. In brief, DCs were isolated from the PBMCs of two healthy human donors and treated for five days with 130 μM 12,13 DiHOME solubilized in 0.2% DMSO or vehicle (0.2% DMSO) in the presence of 20 ng mL^−1 IL-4 (R&D Systems, Minneapolis, MN) and 10 ng mL^−1 GM-CSF (R&D Systems, Minneapolis, MN). Fresh treatment media was added every 48 hrs throughout the course of the study. Eighteen hours prior to co-culture, DCs were stimulated with 10 ng mL^−1 TNFα, IL1β, and IL-6 (Peprotech, Rocky Hill, NJ) and 1 mM prostaglandin E2 (Stemcell Technologies, Cambridge, MA). DCs were subsequently washed and co-cultured with autologous T cells in the presence of 10 ng mL^−1 anti-CD28 and anti-CD49d (BD Bioscience, San Jose, CA).
After five days of co-culture, T cell subsets were analyzed by flow cytometry. To assess cytokine secretion, cells were stimulated for 16 hrs with Phorbol Myristate Acetate-Ionomycin (ACROS, Morris Planes, NJ) and GolgiPlug (Gplug; BD Biosciences, San Jose, CA). Flow cytometry data was collected on a BD LSR II flow cytometer. Helper T cell subsets were defined as follows: Th1 CD3+CD4+IFNγ+; Th2 CD3+CD4+IL-4+; Th17 CD3+CD4+IL-17+, Treg CD3+CD4+CD25+FoxP3+. The human T cell gating strategy can be found in FIG. 4D.

[1] = molecular target: transient receptor potential vanilloid 1 (TRPV1) (Homo sapiens, UniProt Q8NER1); settings: ref [15]; cited from earlier work
Sequence of transient receptor potential vanilloid 1 (TRPV1) (Q8NER1 whole entry, species assumed): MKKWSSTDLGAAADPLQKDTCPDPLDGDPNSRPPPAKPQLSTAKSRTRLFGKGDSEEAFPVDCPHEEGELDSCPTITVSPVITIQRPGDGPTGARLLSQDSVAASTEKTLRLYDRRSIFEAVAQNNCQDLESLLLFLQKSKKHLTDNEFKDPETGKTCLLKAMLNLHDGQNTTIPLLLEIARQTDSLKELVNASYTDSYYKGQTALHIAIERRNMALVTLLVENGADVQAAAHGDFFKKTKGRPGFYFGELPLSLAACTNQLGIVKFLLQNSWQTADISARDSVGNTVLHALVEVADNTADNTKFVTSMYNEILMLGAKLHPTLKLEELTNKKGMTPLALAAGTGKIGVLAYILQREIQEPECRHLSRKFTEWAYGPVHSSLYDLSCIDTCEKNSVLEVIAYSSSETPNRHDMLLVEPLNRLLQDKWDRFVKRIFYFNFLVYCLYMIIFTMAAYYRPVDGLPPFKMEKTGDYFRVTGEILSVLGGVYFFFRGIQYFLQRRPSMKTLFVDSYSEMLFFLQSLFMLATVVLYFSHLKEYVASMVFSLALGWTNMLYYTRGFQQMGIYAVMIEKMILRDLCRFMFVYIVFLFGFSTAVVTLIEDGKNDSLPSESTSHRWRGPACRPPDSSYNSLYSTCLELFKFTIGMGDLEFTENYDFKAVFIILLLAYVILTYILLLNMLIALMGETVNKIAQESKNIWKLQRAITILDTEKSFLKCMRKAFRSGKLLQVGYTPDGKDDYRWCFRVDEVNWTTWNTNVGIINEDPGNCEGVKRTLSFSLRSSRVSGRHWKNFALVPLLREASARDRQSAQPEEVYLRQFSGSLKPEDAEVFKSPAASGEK

PPARγ = test: PPARγ-activated luciferase reporter assay in Raw264.7 cells; format: cell-based; settings: 24 hours after treatment
Protocol: A modified PPARγ luciferase assay was performed as described in Ye et. al.. A PPRE-luciferase reporter plasmid, PPRE X3-TK-luc from Bruce Spiegelman (Plasmid #1015; Addgene, Cambridge, MA), and a PPARγ overexpression plasmid, pGST-PPARgamma from Bert Vogelstein (Plasmid #16549; Addgene, Cambridge, MA), were ordered from Addgene and purified with the Plasmid Plus Maxi Kit (Qiagen, Germantown, MD). Raw264.7 cells grown in R10 media (Roswell Park Memorial Institute (RPMI) media 1640 with 10% heat-inactivated Fetal Bovine SerμMand 2 mM L-glutamine and 100 U mL^−1 penicillin—streptomycin) were transfected with the PPRE-reporter, PPARγ, and Renilla luciferase plasmid DNA in a 1:20:40 ratio, using 50 ng/well of reporter plasmid DNA. Fugene HD Transfection reagent (Promega, Madison, WI) was combined with plasmid DNA in a 4:1 ratio, and the total volume was brought to 5 μL/well with RPMI. The transfection mixture was gently combined with dilute Raw264.7 cells and plated in black, clear-bottom, 96-well plates at a density of 50,000 cells per well. […] Twenty-four hours after treatment luciferase and Renilla luminescence were measured using the Dual-Glo Luciferase Assay kit (Promega, Madison, WI) on a Cytation 3 plate reader (BioTek Instruments, Winooski, VT).

human DCs = test: Gene expression in human DCs by qPCR; format: cell-based; settings: 130 μM, two days; relative to beta-actin
Protocol: Gene expression was examined in human DCs. DCs were isolated as described above and treated for two days with 130 μM 12,13 DiHOME. Cells were washed twice in PBS, and RNA was extracted using the RNAqueous™ Micro Kit (Ambion, Foster City, CA). The RT2 First Strand Kit (Qiagen, Germantown, MD) was used to synthesize cDNA, and expression of CD36, CD1a, FABP4, and HADH relative to beta-actin was measured using Power SYBR Green PCR Master Mix (ThermoFisher Scientific, Waltham, MA) and a QuantStudio 6 Real-Time PCR system (ThermoFisher Scientific, Waltham, MA).

CCCCCC(O)C(O)C/C=C\CCCCCCCC(=O)O (stereo not drawn) [12,13 DiHOME]
cell viability (autologous T cells; DC and T cell co-culture): without decreasing
distribution of helper T cells (autologous T cells; DCs treated with 130 μM): significant shift
frequency of Tregs (CD3+CD4+CD25+FoxP3+) (autologous T cells; DCs treated with 130 μM): specific decrease
action on TRPV1 [1]: activator
concentrations that lead to PPARγ activation (PPARγ): > 50 µM
expression of CD1a (RNA) (human DCs): significant decrease
expression of CD36 (RNA) (human DCs): significant increases
expression of FABP4 (RNA) (human DCs): significant increases
expression of HADH (RNA) (human DCs): significant increases
